Experimental data: patent US9440964B2, “Pesticidal compositions and processes related thereto” (Dow AgroSciences LLC, priority 2011, dated 2016)
Read-outs that look alike come from different tables or passages of the source.

Columns and labels:
BAW (Spodoptera exigua) = assay: Bioassay on Beet Armyworm (BAW), 128-well diet tray; format: in vivo; conditions: Spodoptera exigua, 168 h, read-out: Rating BAW
Experimental: (§1) Certain molecules disclosed in this document were tested against BAW and CEW using procedures described in the following examples. In the reporting of the results, the “BAW & CEW Rating Table” was used (See Table Section).
Bioassays on BAW (Spodoptera exigua)
(§2) Trays were covered with a clear self-adhesive cover and held at 25° C., 14:10 light-dark for five to seven days. Percent mortality was recorded for the larvae in each well; activity in the eight wells was then averaged. The results are indicated in the table entitled “Table ABC: Biological Results” (See Table Section).

CEW (Helicoverpa zea) = assay: Bioassay on Corn Earworm (CEW), 128-well diet tray; format: in vivo; conditions: Helicoverpa zea, 168 h, percent mortality, second instar larvae, five to seven days; for pest or weed control at 0.5 µg/cm2: 0.5 μg/cm^2 on diet, read-out: Rating CEW (*Tested at 0.5 μg/cm^2); for pest or weed control at 50 µg/cm2: 50 μg/cm^2 on diet, read-out: Rating CEW
Experimental: as §1
Bioassays on CEW (Helicoverpa zea)
as §2

[1] = percent mortality, second instar larvae, 50 μg/cm^2 on diet, five to seven days

Row | Compound | pest or weed control at 50 µg/cm2 (BAW (Spodoptera exigua); [1]) [%] | pest or weed control at 0.5 µg/cm2 (CEW (Helicoverpa zea)) [%] | pest or weed control at 50 µg/cm2 (CEW (Helicoverpa zea)) [%] | pest or weed control at 50 µg/cm2 (BAW (Spodoptera exigua)) [%]
1 | Cc1ccc(Cl)cc1N1C(=O)CS/C1=N\C(=O)Nc1ccc(-c2ncn(-c3ccc(OC(F)(F)F)cc3)n2)cc1 [Molecule A76] | 50 to 100 | 50 to 100 | – | –
2 | Cc1cccc(C)c1N/C(S)=N/C(=O)Nc1ccc(-c2ncn(-c3ccc(C(F)(F)F)cc3)n2)cc1 [Molecule A12] | 50 to 100 | – | 50 to 100 | –
3 | CC(C)C(=O)OCS/C(=N\C(=O)Nc1ccc(-c2ncn(-c3ccc(OC(F)(F)F)cc3)n2)cc1)Nc1ccccc1C(C)C [Molecule A5, (Z)—((N-(2-Isopropylphenyl)-N′-((4-(1-(4-(trifluoromethoxy)phenyl)-1H-1,2,4-triazol-3-yl)phenyl)carbamoyl)carbamimidoyl)thio)methyl isobutyrate] | 50 to 100 | – | 50 to 100 | –
4 | CC(C)c1ccccc1N1C(=O)CS/C1=C(/C#N)C(=O)Nc1ccc(-c2ncn(-c3ccc(OC(F)(F)F)cc3)n2)cc1 [Molecule A31, (Z)-2-Cyano-2-(3-(2-isopropylphenyl)-4-oxothiazolidin-2-ylidene)-N-(4-(1-(4-(trifluoromethoxy)phenyl)-1H-1,2,4-triazol-3-yl)phenyl)acetamide] | 50 to 100 | – | 50 to 100 | –
5 | CCc1ccccc1NC(=O)NC(=O)Nc1ccc(-c2ncn(-c3ccc(OC(F)(F)F)cc3)n2)cc1 [Molecule A52] | 50 to 100 | – | 50 to 100 | –
6 | Cc1ccc(N/C(S)=N/C(=O)Nc2ccc(-c3ncn(-c4ccc(OC(F)(F)F)cc4)n3)cc2)c(C(C)C)c1 [Molecule A84] | 50 to 100 | 50 to 100 | – | –
7 | Cc1ccc(F)c(N/C(S)=N/C(=O)Nc2ccc(-c3ncn(-c4ccc(OC(F)(F)F)cc4)n3)cc2)c1 [Molecule A89] | 50 to 100 | 50 to 100 | – | –
8 | CC(C)c1cccc(Cl)c1N/C(S)=N/C(=O)Nc1ccc(-c2ncn(-c3ccc(OC(F)(F)F)cc3)n2)cc1 [Molecule A81] | 50 to 100 | – | 50 to 100 | –
9 | CC(C)c1ccccc1N/C(S)=C/C(=O)Nc1ccc(-c2ncn(-c3ccc(OC(F)(F)F)cc3)n2)cc1 [Molecule A21, 3-((2-isopropylphenyl)amino)-3-thioxo-N-(4-(1-(4-(trifluoromethoxy)phenyl)-1H-1,2,4-triazol-3-yl)phenyl)propanamide] | 50 to 100 | – | 50 to 100 | –
10 | Cc1ccccc1N/C(S)=C/C(=O)Nc1ccc(-c2ncn(-c3ccc(OC(F)(F)F)cc3)n2)cc1 [Molecule A22, 3-thioxo-3-(o-tolylamino)-N-(4-(1-(4-(trifluoromethoxy)phenyl)-1H-1,2,4-triazol-3-yl)phenyl)propanamide] | 50 to 100 | – | 50 to 100 | –
11 | Cc1cc(C)cc(N/C(S)=N/C(=O)Nc2ccc(-c3ncn(-c4ccc(OC(F)(F)F)cc4)n3)cc2)c1 [Molecule A100] | 50 to 100 | 50 to 100 | – | –
12 | Cc1cccc(N2C(=O)CS/C2=N\C(=O)Nc2ccc(-c3ncn(-c4ccc(OC(F)(F)F)cc4)n3)cc2)c1C(C)C [Molecule A108] | 50 to 100 | 50 to 100 | – | –
13 | COc1ccc(N/C(=N/C(=O)Nc2ccc(-c3ncn(-c4ccc(C(F)(F)F)cc4)n3)cc2)SC)c(C)c1 [Molecule A2, (Z)-Methyl N-(4-methoxy-2-methylphenyl)-N′-((4-(1-(4-(trifluoromethyl)phenyl)-1H-1,2,4-triazol-3-yl)phenyl)carbamoyl)carbamimidothioate] | 50 to 100 | – | 50 to 100 | –
14 | Cc1cccc(N/C(S)=N/C(=O)Nc2ccc(-c3ncn(-c4ccc(OC(F)(F)F)cc4)n3)cc2)c1C(C)C [Molecule A106] | 50 to 100 | 50 to 100 | – | –
15 | CC(C)c1ccccc1N/C(S)=N/C(=O)Nc1ccc(-c2ncn(-c3ccc(C(F)(F)C(F)(F)C(F)(F)F)cc3)n2)cc1 [Molecule A113] | – | – | – | 50 to 100
16 | CC(C)c1cc(F)ccc1N/C(S)=N/C(=O)Nc1ccc(-c2ncn(-c3ccc(OC(F)(F)F)cc3)n2)cc1 [Molecule A116] | 50 to 100 | 50 to 100 | – | –
17 | COc1cc(C)c(N/C(S)=N/C(=O)Nc2ccc(-c3ncn(-c4ccc(OC(F)(F)F)cc4)n3)cc2)c(C)c1 [Molecule A50] | 50 to 100 | – | 50 to 100 | –
18 | CCC(C)c1ccccc1N/C(=N\C(=O)Nc1ccc(-c2ncn(-c3ccc(OC(F)(F)F)cc3)n2)cc1)SCOC(=O)C(C)C (stereo not shown) [Molecule A54] | 50 to 100 | – | 50 to 100 | –

Row | Compound | pest or weed control at 50 µg/cm2 (BAW (Spodoptera exigua); [1]) [%] | pest or weed control at 0.5 µg/cm2 (CEW (Helicoverpa zea)) [%] | pest or weed control at 50 µg/cm2 (CEW (Helicoverpa zea)) [%] | pest or weed control at 50 µg/cm2 (BAW (Spodoptera exigua)) [%]
19 | Cc1cccc(C)c1N1CC(C)CS/C1=N\C(=O)Nc1ccc(-c2ncn(-c3ccc(OC(F)(F)F)cc3)n2)cc1 (stereo not shown) [Molecule A39] | 50 to 100 | – | 50 to 100 | –
20 | Cc1cccc(C)c1N/C(S)=C(\C#N)C(=O)Nc1ccc(-c2ncn(-c3ccc(OC(F)(F)F)cc3)n2)cc1 [Molecule A28, (Z)-2-Cyano-3-mercapto-3-((2,6-dimethylphenyl)amino)-N-(4-(1-(4-(trifluoromethoxy)phenyl)-1H-1,2,4-triazol-3-yl)phenyl)acrylamide] | – | – | 50 to 100 | –
21 | COc1ccc(N/C(S)=N/C(=O)Nc2ccc(-c3ncn(-c4ccc(OC(F)(F)F)cc4)n3)cc2)c(C)c1 [Molecule A98] | 50 to 100 | 50 to 100 | – | –
22 | Cc1c(F)cccc1N/C(S)=N/C(=O)Nc1ccc(-c2ncn(-c3ccc(OC(F)(F)F)cc3)n2)cc1 [Molecule A79] | 50 to 100 | 50 to 100 | – | –
23 | N#C/C(C(=O)Nc1ccc(-c2ncn(-c3ccc(OC(F)(F)F)cc3)n2)cc1)=C(/S)Nc1ccccc1-c1ccccc1 [Molecule A27, (Z)-3-([1,1′-Biphenyl]-2-ylamino)-2-cyano-3-mercapto-N-(4-(1-(4-(trifluoromethoxy)phenyl)-1H-1,2,4-triazol-3-yl)phenyl)acrylamide] | – | – | 0 to 50 | –
24 | Cc1cc(C)c(N2CC(C)CS/C2=N\C(=O)Nc2ccc(-c3ncn(-c4ccc(OC(F)(F)F)cc4)n3)cc2)c(C)c1 (stereo not shown) [Molecule A41] | 50 to 100 | – | 50 to 100 | –
25 | COc1ccc(N/C(=N/C(=O)Nc2ccc(-c3ncn(-c4ccc(OC(F)(F)F)cc4)n3)cc2)SCS[C@@H]2O[C@@H](C)[C@H](OC)[C@@H](OC)[C@H]2OC)c(C)c1 [Molecule A10, (Z)-(((2S,3R,4R,5S,6S)-3,4,5-Trimethoxy-6-methyltetrahydro-2H-pyran-2-yl)thio)methyl N-(4-methoxy-2-methylphenyl)-N′-((4-(1-(4-(trifluoromethoxy)phenyl)-1H-1,2,4-triazol-3-yl)phenyl)carbamoyl) carbamimidothioate] | 50 to 100 | – | 50 to 100 | –
26 | Cc1cc(C)cc(N2C(=O)CS/C2=N\C(=O)Nc2ccc(-c3ncn(-c4ccc(OC(F)(F)F)cc4)n3)cc2)c1 [Molecule A104] | – | 50 to 100 | – | –
27 | Cc1ccc(C(C)C)c(N/C(S)=N/C(=O)Nc2ccc(-c3ncn(-c4ccc(OC(F)(F)F)cc4)n3)cc2)c1 [Molecule A83] | 50 to 100 | – | – | –
28 | Cc1cc(C)c(-n2c(C)cs/c2=N\C(=O)Nc2ccc(-c3ncn(-c4ccc(OC(F)(F)F)cc4)n3)cc2)c(C)c1 [Molecule A43, (Z)-1-(3-mesityl-4-methylthiazol-2(3H)-ylidene)-3-(4-(1-(4-(trifluoromethoxy)phenyl)-1H-1,2,4-triazol-3-yl)phenyl)urea] | – | – | 50 to 100 | –
29 | CC(C)c1ccccc1N/C(S)=C(\C#N)C(=O)Nc1ccc(-c2ncn(-c3ccc(OC(F)(F)F)cc3)n2)cc1 [Molecule A25, (Z)-2-cyano-3-((2-isopropylphenyl)amino)-3-mercapto-N-(4-(1-(4-(trifluoromethoxy)phenyl)-1H-1,2,4-triazol-3-yl)phenyl)acrylamide] | – | – | 0 to 50 | –
30 | CC(C)c1ccccc1N1C(=O)CS/C1=N\C(=O)Nc1ccc(-c2nnc(-c3ccc(OC(F)(F)C(F)(F)F)cc3)o2)cc1 [Molecule A102, (Z)-1-(3-(2-isopropylphenyl)-4-oxothiazolidin-2-ylidene)-3-(4-(5-(4-(perfluoroethoxy)phenyl)-1,3,4-oxadiazol-2-yl)phenyl)urea] | – | 50 to 100 | – | –
31 | O=C(/N=C1\SCC(=O)N1c1ccccc1C1CC1)Nc1ccc(-c2ncn(-c3ccc(OC(F)(F)F)cc3)n2)cc1 [Molecule A66] | 50 to 100 | – | – | –
32 | Cc1cccc(C)c1-n1c(C)cs/c1=N\C(=O)Nc1ccc(-c2ncn(-c3ccc(OC(F)(F)F)cc3)n2)cc1 [Molecule A42] | 0 to 50 | – | – | –
33 | Cc1cccc(N/C(S)=N/C(=O)Nc2ccc(-c3ncn(-c4ccc(OC(F)(F)F)cc4)n3)cc2)c1C [Molecule A71] | 50 to 100 | – | – | –
34 | CC(C)(C)c1ccccc1N1C(=O)CS/C1=N\C(=O)Nc1ccc(-c2ncn(-c3ccc(OC(F)(F)F)cc3)n2)cc1 [Molecule A95] | – | 50 to 100 | – | –
35 | CC(C)c1ccccc1N/C(S)=N/C(=O)Nc1ccc(-c2ncn(-c3ccc(OC(F)(F)C(F)(F)F)cc3)n2)cc1 [Molecule A112] | 50 to 100 | – | – | –
36 | CC(C)c1ccccc1N/C(S)=N/C(=O)Nc1ccc(-c2nnc(-c3ccc(OC(F)(F)C(F)(F)F)cc3)o2)cc1 [Molecule A96, N-[[(2-isopropyllphenyl)amino]thioxomethyl]-N′-((4-(5-(4-(perfluoroethoxy)phenyl)-1,3,4-oxadiazol-2-yl)phenyl))urea] | 50 to 100 | – | – | –
